Source: paper PMC4821708 (Biochimica et biophysica acta, 2016)

What was measured:
Cytoglobin (Cygb) [1] = molecular target: T1, Cytoglobin (Cygb) (Homo sapiens, UniProt Q8WWM9); assay: LC-MS/MS of lipid oxidation products by Cygb/H2O2; assay type: biochemical
[2] = molecular target: Cytoglobin (Cygb Δ1-15Δ174-190) (Homo sapiens, UniProt Q8WWM9, Δ1-15Δ174-190); assay: differential absorbance spectroscopy titration, […] fit; assay type: binding
[3] = molecular target: Cytoglobin (Cygb), wild type (Homo sapiens, UniProt Q8WWM9); assay: as above; assay type: binding
Chain of Cytoglobin (Cygb), wild type (Q8WWM9 whole entry): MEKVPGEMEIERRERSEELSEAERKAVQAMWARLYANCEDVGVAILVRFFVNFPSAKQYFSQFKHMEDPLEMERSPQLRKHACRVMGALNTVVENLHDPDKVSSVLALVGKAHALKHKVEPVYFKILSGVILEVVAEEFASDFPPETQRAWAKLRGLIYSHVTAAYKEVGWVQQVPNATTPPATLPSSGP

Cytoglobin (Cygb) [4] = molecular target: T1, Cytoglobin (Cygb); assay type: biochemical; conditions: cygb:lipid liposomes

T1 sequence (Q8WWM9 whole entry): as above
Chain of Cytoglobin (Cygb Δ1-15Δ174-190) (Q8WWM9 16-173, stated change not applied): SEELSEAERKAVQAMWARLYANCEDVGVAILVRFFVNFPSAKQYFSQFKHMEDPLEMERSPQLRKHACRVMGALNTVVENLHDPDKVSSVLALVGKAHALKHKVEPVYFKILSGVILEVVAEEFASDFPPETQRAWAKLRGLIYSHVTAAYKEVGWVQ

CCCCC/C=C\C/C=C\C/C=C\C/C=C\CCCC(=O)O[C@H](COC(=O)CCCCCCCCCCCCCCCCC)COP(=O)(O)O [SAPA, 1-stearoyl-2-arachidonoyl-sn-glycero-3-phosphate]
LC-MS/MS of lipid oxidation products by Cygb/H2O2 (Cytoglobin (Cygb) [1]): 5.6 ± 0.1 picomoles of oxidation products

CCCCCCCC/C=C\CCCCCCCC(=O)O [OA, oleic acid]
Kd [2]: 3000 ± 1800 nM
Kd [3]: 2300 ± 1000 nM

CCCCCCCC/C=C\CCCCCCCC(=O)OC[C@H](COP(=O)(O)O)OC(=O)CCCCCCC/C=C\CCCCCCCC [DOPA, 1,2-dioleoyl-sn-glycero-3-phosphate]
activation of peroxidase activity, Amplex Red oxidation, 1:25 Cygb:lipid liposom (Cytoglobin (Cygb) [4]): 1.6 fold increase in rate
